Data as given in patent US20240368194A1, “IRAK4 DEGRADATION AGENT, AND PREPARATION METHOD THEREFOR AND USE THEREOF” (SHANGHAI LEADINGTAC PHARMACEUTICAL CO. LTD., priority 2021, published 2024).

Molecular target: IRAK4 protein in THP-1 cells (Homo sapiens (Human), UniProt Q9NWZ3)
Assay: Degradation of IRAK4 in THP-1 cells, human IRAK4 AlphaLISA assay
Format: cell-based
Conditions: 24 h incubation
Description: THP-1 cells (Stem Cell Bank, Chinese Academy of Sciences) were inoculated onto a 24-well cell culture plate at 0.95 mL/well, with a cell density of 5×10^5 cells/well. The cell plate was incubated overnight in a 37° C., 5% carbon dioxide incubator, and 50 μL of a solution of a compound in dimethyl sulfoxide was added, such that the final concentration of the compound fell within the range of 0.03-3000 nM. After another 24 h of incubation, cells were collected into 1.5 mL centrifuge tubes and centrifuged at 1000 rpm at 4° C. for 5 min. The cell pellets were washed twice with 1×DPBS. The resuspended cells were lysed with 200 μL of lysis buffer (Western and IP cell lysis buffer (Beyotime), supplemented with 1 mM phenylmethylsulfonyl fluoride and protease inhibitor cocktail (Beyotime)), left to stand on ice for 30 mini, and then centrifuged at 14,000 g at 4° C. for 10 min. The supernatant samples were assayed by Western Blot for IRAK4 protein levels.
The above cell lysates were also tested for IRAK4 degradation using a human IRAK4 AlphaLISA assay kit (PerkinElmer, AL3117C). The method is specifically as follows: 2-μL test samples of cell lysate supernatant were transferred to a white 384-well plate (PerkinElmer, 6007299), and 4 μL of 5× anti-IRAK4 receptor beads (PerkinElmer, final concentration of 10 μg/mL) was then added. The plate was incubated at 23° C. for 30 min. Then 4 μL of 5× biotin-labeled anti-IRAK4 antibody (PerkinElmer, final concentration of 1 nM) was added, and the plate was incubated at 23° C. for 60 min. Finally, 10 μL of 2′ streptavidin-labeled donor beads (final concentration of 40 μg/mL) was added to each well, and the plate was incubated in the dark at 23° C. for 30 min. After the incubation was complete, AlphaLISA signal values were measured on a microplate reader EnVision (PerkinElmer, 2105) in the AlphaScreen standard mode, and IRAK4 concentrations were calculated from these signal values. Then a non-linear curve fitting of logarithmic concentration-inhibition rate was performed using GraphPad Prism 7, and the DC50 and Dmax values of the compound were obtained.

Sequence of IRAK4 protein in THP-1 cells (Q9NWZ3 whole entry): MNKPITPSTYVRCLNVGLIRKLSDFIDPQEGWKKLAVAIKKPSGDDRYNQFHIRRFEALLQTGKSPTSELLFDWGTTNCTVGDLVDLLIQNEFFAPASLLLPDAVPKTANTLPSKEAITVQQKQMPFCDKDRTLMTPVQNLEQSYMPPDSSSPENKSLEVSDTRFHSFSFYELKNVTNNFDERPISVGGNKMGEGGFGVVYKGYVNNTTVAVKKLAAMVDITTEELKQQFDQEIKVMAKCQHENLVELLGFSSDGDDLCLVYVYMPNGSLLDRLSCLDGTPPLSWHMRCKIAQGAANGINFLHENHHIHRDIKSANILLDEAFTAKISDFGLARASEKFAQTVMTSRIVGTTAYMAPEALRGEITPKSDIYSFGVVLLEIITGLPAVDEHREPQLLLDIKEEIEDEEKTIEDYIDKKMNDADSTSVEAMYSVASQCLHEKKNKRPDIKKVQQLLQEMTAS

Row | Structure (SMILES) | DC50 [nM] | Dmax [%]
1 | COc1cc2nn([C@H]3CC[C@](O)(COCC4CCN(C(=O)c5ccc(Cl)c(N6CCC(=O)NC6=O)c5)CC4)CC3)cc2cc1NC(=O)c1cccc(C(F)(F)F)n1 [Example 8, N-(2-((1S,4S)-4-(((1-(4-chloro-3-(2,4-dioxotetrahydropyrimidin-1(2H)-yl)benzoyl)piperidin-4-yl)methoxy)methyl)-4-hydroxycyclohexyl)-6-methoxy-2H-indol-5-yl)-6-(trifluoromethyl)pyridinecarboxamide] | 8.8 | 86.8
2 | COc1cc2nn([C@H]3CC[C@](O)(COCCC4CCN(C(=O)c5ccc(Cl)c(N6CCC(=O)NC6=O)c5)CC4)CC3)cc2cc1NC(=O)c1cccc(C(F)(F)F)n1 [Example 10] | 2.8 | 99.3
3 | COc1cc2nn([C@H]3CC[C@](O)(CN(C)CC4CCC5(CC4)CCN(C(=O)c4ccc(Cl)c(N6CCC(=O)NC6=O)c4)CC5)CC3)cc2cc1NC(=O)c1cccc(C(F)(F)F)n1 [Example 17] | 10.4 | 99.4
4 | COc1cc2nn([C@H]3CC[C@@](COCCC4CCN(C(=O)c5ccc(Cl)c(N6CCC(=O)NC6=O)c5)CC4)(OC)CC3)cc2cc1NC(=O)c1cccc(C(F)(F)F)n1 [Example 22, N-(2-((1S,4S)-4-((2-(1-(4-chloro-3-(2,4-dioxotetrahydropyrimidin-1(2H)-yl)benzoyl)piperidin-4-yl)ethoxy)methyl)-4-methoxycyclohexyl)-6-methoxy-2H-indazol-5-yl)-6-(trifluoromethyl)pyridinecarboxamide] | 3.42 | 96.5
5 | CN(CCC1CCN(C(=O)c2ccc(Cl)c(N3CCC(=O)NC3=O)c2)CC1)C[C@H]1CC[C@H](n2cc(NC(=O)c3cnn4ccc(N5CC6CCC(C5)O6)nc34)c(C(F)F)n2)CC1 [Example 31, 5-(8-oxa-3-azabicyclo[3.2.1]octan-3-yl)-N-(1-((1R,4R)-4-(((2-(1-(4-chloro-3-(2,4-dioxotetrahydropyrimidin-1(2H)-yl)benzoyl)piperidin-4-yl)ethyl)(methyl)amino)methyl)cyclohexyl)-3-(difluoromethyl)-1H-pyrazol-4-yl)pyrazolo[1,5-a]pyrimidine-3-carboxamide] | 6.1 | 91.1
6 | COc1ccc(C(=O)N2CCC(CCN(C)C[C@H]3CC[C@H](n4cc(NC(=O)c5cnn6ccc(N7CCC[C@H](O)C7)nc56)c(C(F)F)n4)CC3)CC2)cc1N1CCC(=O)NC1=O [Example 35, N-(3-(difluoromethyl)-1-((1R,4S)-4-(((2-(1-(3-(2,4-dioxotetrahydropyrimidin-1(2H)-yl)-4-methoxybenzoyl)piperidin-4-yl)ethyl)(methyl)amino)methyl)cyclohexyl)-1H-pyrazol-4-yl)-5-((S)-3-hydroxypiperidin-1-yl)pyrazolo[1,5-a]pyrimidine-3-carboxamide] | 0.78 | 100
7 | COc1ccc(C(=O)N2CCC(CCN(C)C[C@H]3CC[C@H](n4cc(NC(=O)c5cnn6ccc(N7CCC[C@H](N)C7)nc56)c(C(F)F)n4)CC3)CC2)cc1N1CCC(=O)NC1=O [Example 36, 5-((S)-3-aminopiperidin-1-yl)-N-(3-(difluoromethyl)-1-((1R,4S)-4-(((2-(1-(3-(2,4-dioxotetrahydropyrimidin-1(2H)-yl)-4-methoxybenzoyl)piperidin-4-yl)ethyl)(methyl)amino)methyl)cyclohexyl)-1H-pyrazol-4-yl)pyrazolo[1,5-a]pyrimidine-3-carboxamide] | 3.45 | 96
8 | COc1ccc(C(=O)N2CCC(CCN(C)C[C@H]3CC[C@H](n4cc(NC(=O)c5cnn6ccc(N7CC8(COC8)C7)nc56)c(C(F)F)n4)CC3)CC2)cc1N1CCC(=O)NC1=O [Example 39, N-(3-(difluoromethyl)-1-((1R,4R)-4-(((2-(1-(3-(2,4-dioxotetrahydropyrimidin-1(2H)-yl)-4-methoxybenzoyl)piperidin-4-yl)ethyl)(methyl)amino)methyl)cyclohexyl)-1H-pyrazol-4-yl)-5-(2-oxa-6-azaspiro[3.3]heptan-6-yl)pyrazolo[1,5-a]pyrimidine-3-carboxamide] | 10.9 | 93.9

Further lines, results first:

Row | DC50 [nM] | Dmax [%] | Structure (SMILES)
9 | 148 | 76.4 | Cc1nn([C@H]2CC[C@H](CN3CCC4(CC3)CCN(C(=O)c3ccc(Cl)c(N5CCC(=O)NC5=O)c3)CC4)CC2)cc1NC(=O)c1cnn2ccc(N3C[C@H]4C[C@@H]3CO4)nc12 [Example 7, 5-((1R,4R)-2-oxa-5-azabicyclo[2.2.1]heptan-5-yl)-N-(1-((1R,4R)-4-((9-(4-chloro-3-(2,4-dioxotetrahydropyrimidin-1(2H)-yl)benzoyl)-3,9-diazaspiro[5.5]undecan-3-yl)methyl)cyclohexyl)-3-methyl-1H-pyrazol-4-yl)pyrazolo[1,5-a]pyrimidine-3-carboxamide]
10 | 12.7 | 90.7 | CN(CCC1CCN(C(=O)c2ccc(Cl)c(N3CCC(=O)NC3=O)c2)CC1)C[C@H]1CC[C@H](n2cc(NC(=O)c3cnn4ccc(N5C[C@H]6C[C@@H]5CO6)nc34)c(C(F)F)n2)CC1 [Example 11, 5-((1R,4R)-2-oxa-5-azabicyclo[2.2.1]heptan-5-yl)-N-(1-((1R,4R)-4-(((2-(1-(4-chloro-3-(2,4-dioxotetrahydropyrimidin-1(2H)-yl)benzoyl)piperidin-4-yl)ethyl)(methyl)amino)methyl)cyclohexyl)-3-(difluoromethyl)-1H-pyrazol-4-yl)pyrazolo[1,5-a]pyrinidine-3-carboxamide]
11 | 2.75 | 98.5 | O=C1CCN(c2cc(C(=O)N3CCC4(CCN(C[C@H]5CC[C@H](n6cc(NC(=O)c7cnn8ccc(N9CCOCC9)nc78)c(C(F)F)n6)CC5)CC4)CC3)ccc2Cl)C(=O)N1 [Example 29, N-(1-((1R,4R)-4-((9-(4-chloro-3-(2,4-dioxotetrahydropyrimidin-1(2H)-yl)benzoyl)-3,9-diazaspiro[5.5]undecan-3-yl)methyl)cyclohexyl)-3-(difluoromethyl)-1H-pyrazol-4-yl)-5-morpholinopyrazolo[1,5-a]pyrimidine-3-carboxamide]
12 | 5.23 | 90.1 | CN(CCC1CCN(C(=O)c2ccc(Cl)c(N3CCC(=O)NC3=O)c2)CC1)C[C@H]1CC[C@H](n2cc(NC(=O)c3cnn4ccc(N5CCOCC5)nc34)c(C(F)F)n2)CC1 [Example 30, N-(1-((1R,4R)-4-(((2-(1-(4-chloro-3-(2,4-dioxotetrahydropyrimidin-1(2H)-yl)benzoyl)piperidin-4-yl)ethyl)(methyl)amino)methyl)cyclohexyl)-3-(difluoromethyl)-1H-pyrazol-4-yl)-5-morpholinopyrazolo[1,5-a]pyrimidine-3-carboxamide]
13 | 3.46 | 90.5 | O=C1CCN(c2cc(C(=O)N3CCC4(CCN(C[C@H]5CC[C@H](n6cc(NC(=O)c7cnn8ccc(N9CC%10CCC(C9)O%10)nc78)c(C(F)F)n6)CC5)CC4)CC3)ccc2Cl)C(=O)N1 [Example 32, 5-(8-oxa-3-azabicyclo[3.2.1]octan-3-yl)-N-(1-((1R,4R)-4-((9-(4-chloro-3-(2,4-dioxotetrahydropyrimidin-1(2H)-yl)benzoyl)-3,9-diazaspiro[5.5]undecan-3-yl)methyl)cyclohexyl)-3-(difluoromethyl)-1H-pyrazol-4-yl)pyrazolo[1,5-a]pyrimidine-3-carboxamide]
14 | 0.82 | 96.2 | Cc1ccc(C(=O)N2CCC3(CCN(C[C@H]4CC[C@H](n5cc(NC(=O)c6cnn7ccc(N8CCC[C@H](O)C8)nc67)c(C(F)F)n5)CC4)CC3)CC2)cc1N1CCC(=O)NC1=O [Example 45, N-(3-(difluoromethyl)-1-((1R,4S)-4-((9-(3-(2,4-dioxotetrahydropyrimidin-1(2H)-yl)-4-methylbenzoyl)-3,9-diazaspiro[5.5]undecan-3-yl)methyl)cyclohexyl)-1H-pyrazol-4-yl)-5-((S)-3-hydroxypiperidin-1-yl)pyrazolo[1,5-a]pyrimidine-3-carboxamide]
15 | 4.84 | 99 | CN(CCC1CCN(C(=O)c2ccc(Cl)c(N3CCC(=O)NC3=O)c2)CC1)C[C@H]1CC[C@H](n2cc(NC(=O)c3cnn4ccc(N5CCC[C@H](N)C5)nc34)c(C(F)F)n2)CC1 [Example 47, 5-((S)-3-aminopiperidin-1-yl)-N-(1-((1R,4S)-4-(((2-(1-(4-chloro-3-(2,4-dioxotetrahydropyrimidin-1(2H)-yl)benzoyl)piperidin-4-yl)ethyl)(methyl)amino)methyl)cyclohexyl)-3-(difluoromethyl)-1H-pyrazol-4-yl)pyrazolo[1,5-a]pyrimidine-3-carboxamide]
